Calls of active or inactive are those of the source. The rule behind the calls is not given here.
Experiments:
[1] = molecular target: T1, Tyrosine-protein phosphatase non-receptor type 1 (Homo sapiens) (UniProt P18031); assay: Inhibition of PTP1B (unknown origin) at 20 ug/ml using pNPP substrate measured after 3 mins by colorimetric assay
T1 sequence (whole entry): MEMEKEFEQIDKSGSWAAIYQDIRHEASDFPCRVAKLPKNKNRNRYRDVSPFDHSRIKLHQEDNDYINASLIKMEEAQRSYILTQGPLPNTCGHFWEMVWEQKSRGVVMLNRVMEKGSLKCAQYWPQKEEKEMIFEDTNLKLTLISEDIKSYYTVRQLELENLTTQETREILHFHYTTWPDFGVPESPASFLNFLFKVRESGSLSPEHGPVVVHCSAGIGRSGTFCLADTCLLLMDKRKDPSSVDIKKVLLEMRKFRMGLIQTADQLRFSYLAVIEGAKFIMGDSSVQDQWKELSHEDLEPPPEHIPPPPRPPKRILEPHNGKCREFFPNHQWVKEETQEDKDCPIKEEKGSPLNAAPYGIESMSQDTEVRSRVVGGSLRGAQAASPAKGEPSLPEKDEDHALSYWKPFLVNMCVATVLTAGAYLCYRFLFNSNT

[2] = molecular target: T2, Tyrosine-protein phosphatase non-receptor type 1 (Homo sapiens, UniProt P18031); assay: Inhibition of PTP1B (unknown origin) using pNPP substrate measured after 3 mins by colorimetric assay
T2 sequence (P18031 whole entry): T1 sequence (whole entry)

[3] = molecular target: T1, Tyrosine-protein phosphatase non-receptor type 1 (Homo sapiens); assay: Competitive inhibition of PTP1B (unknown origin) assessed as unchanged Vmax level at 1.5 to 6 uM using pNPP substrate by colorimetric method based Lineweaver-Burk plot method
[4] = molecular target: T1, Tyrosine-protein phosphatase non-receptor type 1 (Homo sapiens); assay: Inhibition of PTP1B (unknown origin) using pNPP substrate by colorimetric method based enzyme kinetics assay; conditions: TDE = time-dependent effect
[5] = molecular target: T1, Tyrosine-protein phosphatase non-receptor type 1 (Homo sapiens); assay: Competitive inhibition of PTP1B (unknown origin) assessed as increase in substrate Km at 1.5 to 6 uM using pNPP substrate by colorimetric method based Lineweaver-Burk plot method
[6] = molecular target: T1, Tyrosine-protein phosphatase non-receptor type 1 (Homo sapiens); assay: Fast-binding inhibition of PTP1B (unknown origin) using pNPP substrate by colorimetric method based enzyme kinetics assay

**Q.** For `C=C(C)C(O)Cc1c(OC)ccc(C(=O)/C=C/c2ccc(O)cc2)c1O` (centres undefined) [XANTHOANGELOL D], which inhibition [1] is on record?
**A.** Its inhibition is 96.8%.

**Q.** What about the IC50 [2] of the same compound?
**A.** Its IC50 is 11.2 µM.

**Q.** For `O=c1c(O[C@@H]2O[C@H](CO)[C@H](O)[C@H](O)[C@H]2O)c(-c2ccc(O)c(O)c2)oc2cc(O)cc(O)c12`, which inhibition [1] is on record?
**A.** The inhibition was under 50%.

**Q.** `O=c1cc(-c2ccc(O)c(O)c2)oc2cc(O[C@@H]3O[C@H](CO)[C@@H](O)[C@H](O)[C@H]3O)cc(O)c12` was tested. Which inhibition [1] did it give?
**A.** The inhibition was under 50%.

**Q.** Which inhibition [1] does the source give for `COc1ccc(C(=O)/C=C/c2ccc(O)cc2)c2c1[C@H](OC)[C@H](O)C(C)(C)O2` here?
**A.** Its inhibition is under 50%.

**Q.** Which inhibition [1] does the source give for `COc1ccc(C(=O)/C=C/c2ccc(O)cc2)c(O)c1CC=C(C)C` here?
**A.** Its inhibition is 86%.

**Q.** What about the IC50 [2] of the same compound?
**A.** The IC50 was 7.3 µM.

**Q.** For `O=c1c(O[C@@H]2OC[C@H](O)[C@H](O)[C@H]2O)c(-c2ccc(O)c(O)c2)oc2cc(O)cc(O)c12`, which inhibition [1] is on record?
**A.** The inhibition was under 50%.

**Q.** For `C=C[C@@H](O)C#CC#C[C@@H](O)/C=C\CCCCCCC` [FALCARINDIOL], which inhibition [1] is on record?
**A.** The inhibition was 97.8%.

**Q.** And the IC50 [2]?
**A.** The IC50 was 31.6 µM.

**Q.** How did the inhibition [1] turn out when `C/C=C(/C)C(=O)O[C@@H]1Cc2c(ccc3ccc(=O)oc23)OC1(C)C` [JATAMANSIN] was run?
**A.** The inhibition was 93.5%.

**Q.** And the IC50 [2]?
**A.** Its IC50 is 35.2 µM.

**Q.** `COc1c2occc2cc2ccc(=O)oc12` was tested. Which inhibition [1] did it give?
**A.** The inhibition was under 50%.

**Q.** What does the source list for `CC(C)=CCC/C(C)=C/Cc1c(O)ccc(C(=O)/C=C/c2ccc(O)cc2)c1O` [XANTHOANGELOL]?
**A.** inhibition [1]: 79.8%; IC50 [2]: 5.02 µM

**Q.** How did the inhibition [1] turn out when `C/C=C(/C)C(=O)O[C@H]1c2c(ccc3ccc(=O)oc23)OC(C)(C)[C@H]1O` was run?
**A.** Its inhibition is under 50%.

**Q.** How did the inhibition [3] turn out when `C=C(C)C(=O)Cc1c(OC)ccc(C(=O)/C=C/c2ccc(O)cc2)c1O` was run?
**A.** The inhibition was “Active”.

**Q.** What about the inhibition [1] of the same compound?
**A.** The inhibition was 85.2%.

**Q.** What about the IC50 [2] of the same compound?
**A.** The IC50 was 2.33 µM.

**Q.** And the inhibition [4]?
**A.** Its inhibition is “tde”.

**Q.** What about the inhibition [5] of the same compound?
**A.** Its inhibition is “Active”.

**Q.** What about the inhibition [6] of the same compound?
**A.** Its inhibition is “Active”.

**Q.** Which inhibition [1] does the source give for `C=C(C)C(Cc1c(OC)ccc(C(=O)/C=C/c2ccc(O)cc2)c1O)OO` (centres undefined) here?
**A.** The inhibition was 99.4%.

**Q.** What about the IC50 [2] of the same compound?
**A.** Its IC50 is 3.86 µM.

**Q.** With `C/C=C(/C)C(=O)O[C@H]1[C@@H](O)c2c(ccc3ccc(=O)oc23)OC1(C)C` as the compound, how does the inhibition [1] read?
**A.** The inhibition was under 50%.

**Q.** How did the inhibition [1] turn out when `COc1ccc(C(=O)/C=C/c2ccc(O)cc2)c(O)c1C/C=C(\C)CCC=C(C)C` [XANTHOANGELOL F] was run?
**A.** Its inhibition is 96.8%.

**Q.** And the IC50 [2]?
**A.** Its IC50 is 4.11 µM.

**Q.** Which inhibition [1] does the source give for `C[C@@H]1O[C@@H](Oc2c(-c3ccc(O)c(O)c3)oc3cc(O)cc(O)c3c2=O)[C@H](O)[C@H](O)[C@H]1O` [QUERCITRIN] here?
**A.** Its inhibition is 64.4%.

**Q.** What about the IC50 [2] of the same compound?
**A.** Its IC50 is 39 µM.

**Q.** `CCOC1c2c(OC)ccc(C(=O)/C=C/c3ccc(O)cc3)c2OC1C(C)(C)O` (centres undefined) was tested. Which inhibition [1] did it give?
**A.** Its inhibition is 91.9%.

**Q.** And the IC50 [2]?
**A.** The IC50 was 11.1 µM.

**Q.** For `COc1ccc(C(=O)/C=C/c2ccc(O)cc2)c2c1[C@H](O)[C@H](O)C(C)(C)O2`, which inhibition [1] is on record?
**A.** The inhibition was under 50%.

**Q.** `COc1ccc(C(=O)/C=C/c2ccc(O)cc2)c2c1C(O)C(C(C)(C)O)O2` (centres undefined) was tested. Which inhibition [1] did it give?
**A.** Its inhibition is under 50%.

**Q.** `CC1(C)Oc2ccc3ccc(=O)oc3c2[C@@H](O)[C@H]1O` (relative stereo) was tested. Which inhibition [1] did it give?
**A.** Its inhibition is 92.3%.

**Q.** What about the IC50 [2] of the same compound?
**A.** Its IC50 is 39.7 µM.

**Q.** What does the source list for `COc1c2ccoc2cc2oc(=O)ccc12` [BERGAPTEN]?
**A.** inhibition [1]: 98.4%; IC50 [2]: 11.7 µM

**Q.** With `CC(C)C(=O)O[C@H]1Cc2c(ccc3ccc(=O)oc23)OC1(C)C` as the compound, how does the inhibition [1] read?
**A.** The inhibition was 93.7%.

**Q.** What about the IC50 [2] of the same compound?
**A.** The IC50 was 30.3 µM.
